From patent US20170349879A1, “METHOD FOR CULTURING NORMAL CELLS AND ODONTOMA CELLS CONTAINED IN ORAL TISSUE” (CHIBA UNIVERSITY, priority 2014, published 2017)

Key:
Type in all cases: cell-based, human
salivary gland cells [1] = assay: Primary culture and subculture of salivary gland cells using a Rock inhibitor (cell morphology); settings: Rock inhibitor-containing medium (10 μM), vs standard medium; FIG. 1
Procedure: (i) Patient-derived salivary gland cells for use as a source material were taken in a required amount from the labial glands of each patient. (ii) The cells were washed three times with phosphate-buffered physiological saline (PBS) (supplemented with 10 units/ml of penicillin and 100 μg/ml of streptomycin: Sigma-Aldrich). (iii) The cells were cut into small pieces with sterilized iris scissors and a surgical knife (No. 11). (iv) After addition of trypsin (TrypLE Select Enzyme, Gibco, Code No. A12177-01), the cells were shaken at 37° C. for 30 minutes. (v) The cells were mixed with Dulbecco's modified Eagle medium (DMEM: Sigma-Aldrich) (supplemented with 10% fetal bovine serum: Nichirei Bioscience Inc., Japan, 10 units/ml of penicillin and 100 μg/ml of streptomycin), and centrifugation (at 1000 rpm for 5 minutes) was repeated three times. (vi) The cells were mixed with DMEM (supplemented with 10% fetal bovine serum, 10 units/ml of penicillin, 100 μg/ml of streptomycin, 10 μM of the Rock kinase inhibitor and 0.3 μM of L-ascorbic acid 2-phosphate: Sigma-Aldrich) (DMEM+) and then seeded into collagen type 1-coated cell culture dishes (IWAKI). (vii) The cells were washed with PBS once every three days to replace the above medium. (i) The cultured cells were subcultured at 80% confluency. The cells were washed three times with phosphate-buffered physiological saline. […]

salivary gland cells [2] = assay: Karyotype analysis (Q band technique) of primary cultured salivary gland cells; settings: primary cultured labial gland cells cultured in inhibitor-containing medium; FIG. 5
Procedure: Primary cultured salivary gland cells were cultured in a medium containing a Rock inhibitor and analyzed for the presence or absence of their genetic defect(s) by karyotype analysis. The karyotype analysis test was conducted by Q band technique.

[3] = test system: proliferating cell nuclear antigen (PCNA); assay: Western blotting of PCNA (proliferation) in salivary gland cells; settings: salivary gland cells in Rock inhibitor-containing medium; relative to α-tubulin; FIG. 6A
Procedure: (§1) Primary cultured salivary gland cells were cultured in a medium containing a Rock inhibitor and analyzed for their proliferation by Western blotting of proliferating cell nuclear antigen (PCNA: Santa Cruz) and for their apoptosis by Western blotting of caspase-3 (CST). For analysis of their immortalization, the expression of telomerase reverse transcriptase (TERT) was analyzed by quantitative RT-PCR assay.
(§2) The protein levels of PCNA and caspase-3 were measured by Western blotting. In addition, α-tubulin was used as an endogenous control.
(§3) (i) A protein extract was electrophoresed on a 4% to 12% polyacrylamide gel (Invitrogen).
(§4) (ii) The proteins were transferred onto a nitrocellulose membrane (Invitrogen).
(§5) (iii) The membrane was washed with Tris-buffered saline containing 0.1% Tween-20 (WaKo) (TBST), and then blocked with Blocking One (Nacalai Tesque, Inc., Japan) for 30 minutes. […]
(§6) (vi) The membrane was reacted at room temperature for 1 hour with horseradish peroxidase (HRP)-conjugated secondary antibody (Promega) and then treated with Super Signal West Pico Chemiluminescent substrate (Thermo) to develop signals for visualization purposes. The intensity of signals was quantified with a CS analyzer (ATTO) and expressed as a relative value in comparison with the protein level of α-tubulin measured as a control.

caspase-3 = assay: Western blotting of caspase-3 (apoptosis) in salivary gland cells; settings: salivary gland cells in Rock inhibitor-containing medium; relative to α-tubulin; FIG. 6A
Procedure: as §1, §2, §3, §4, §5, §6

[4] = test system: vascular endothelial cells; assay: Cell culture of vascular endothelial cells using a Rho kinase inhibitor (cell morphology); settings: inhibitor-containing medium (10 μM, EGM-2MV); passage 8 with inhibitor vs passage 0 without; FIG. 15
Procedure: Vascular Endothelial Cells (i) Patient-derived cells for use as a source material were taken in a required amount as described above. (ii) The cells were washed three times with phosphate-buffered physiological saline (PBS) (supplemented with 10 units/ml of penicillin and 100 μg/ml of streptomycin: Sigma-Aldrich). (iii) The cells were cut into small pieces with sterilized iris scissors and a surgical knife (No. 11). (iv) The cells were added to collagenase (032-10534: Wako) and shaken at 37° C. for 60 minutes. (v) The cells were diluted with an equal volume of fetal bovine serum (Nichirei Bioscience Inc., Japan) and centrifuged (at 1000 rpm for 10 minutes), and then centrifuged (at 1000 rpm for 5 minutes) three times with PBS, followed by addition of MACS buffer and centrifugation (at 1000 rpm for 5 minutes). (vi) Magnetic beads (Dynabeads CD31 Endotherial cell, 11155D: Invitrogen) were used to separate the cells. (vii) The cells were mixed with EGM-2MV (Lonza) (supplemented with 20% fetal bovine serum, 10 units/ml of penicillin, 100 μg/ml of streptomycin, and 10 μM of the Rock kinase inhibitor) and then seeded into fibronectin-coated cell culture dishes (IWAKI). (viii) The cells were washed with PBS once every three days to replace the above medium. (ix) The cultured cells were subcultured at 80% confluency. […]

CC(N)[C@H]1CC[C@H](C(=O)Nc2ccncc2)CC1 (stereo partly drawn) [Rock inhibitor, (R)-(+)-trans-N-(4-pyridyl)-4-(1-aminoethyl)-cyclohexanecarboxamide]
cell morphology of salivary gland cells on repeated subculture (salivary gland cells [1]): maintain their cell morphology arranged in a cobblestone pattern even when repeatedly subcultured
chromosomal/genetic defect(s) in karyotype analysis (salivary gland cells [2]): No genetic defect was observed
PCNA expression [3]: no difference was observed
caspase-3 expression (caspase-3): no difference was observed
cell morphology of vascular endothelial cells on repeated subculture [4]: maintain their cell morphology even when repeatedly subcultured
